Source: US9872861B2, “Methods of treatment using selective Bcl-2 inhibitors” (AbbVie Inc., priority 2010, dated 2018)
Read-outs that look alike come from different tables or passages of the source. Marks after values point to notes of the source that are not given here.

What was measured:
[1] = molecular target: Bcl-2 (Homo sapiens, UniProt P10415); experiment: TR FRET competitive binding affinity, Bcl-2; settings: read-out: Target Affinity TR FRET, Bcl-2
Description: (§1) A comparison of the binding affinity for each of the compounds was performed to determine target affinity, as measured by Time-Resolved Fluorescence Resonance Energy Transfer (TR FRET).

[2] = molecular target: Bcl-XL (Homo sapiens, UniProt Q07817); experiment: TR FRET competitive binding affinity, Bcl-XL; settings: read-out: Target Affinity TR FRET, Bcl-XL
Description: as §1

[3] = molecular target: T1, Bcl-w (Homo sapiens, UniProt Q92843); experiment: TR FRET competitive binding affinity, Bcl-w; settings: read-out: Target Affinity TR FRET, Bcl-w
T1 sequence (Q92843 1-193): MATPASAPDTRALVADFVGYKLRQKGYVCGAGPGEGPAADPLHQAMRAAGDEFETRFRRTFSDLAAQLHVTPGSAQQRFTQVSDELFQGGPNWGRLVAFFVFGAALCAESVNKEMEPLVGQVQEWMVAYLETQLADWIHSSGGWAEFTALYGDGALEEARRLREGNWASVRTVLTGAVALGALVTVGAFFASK
Description: as §1

[4] = molecular target: Mcl-1 (Homo sapiens, UniProt Q07820); experiment: TR FRET competitive binding affinity, Mcl-1; settings: read-out: Target Affinity TR FRET, Mcl-1
Description: as §1

[5] = system: FL5.12-Bcl-2 cells; experiment: Cellular efficacy in FL5.12 cells dependent on Bcl-2; format: cell-based, murine; settings: Mus musculus, 3% FBS
[6] = system: FL5.12-Bcl-XL cells; experiment: Cellular efficacy in FL5.12 cells dependent on Bcl-XL; format: cell-based, murine; settings: Mus musculus, 3% FBS
[7] = system: RS4;11 cells; experiment: Cellular efficacy in Bcl-2 dependent tumor cell line RS4;11; format: cell-based, human; settings: Homo sapiens, RS4-11; 10% HS
[8] = system: H146 cells; experiment: Cellular efficacy in Bcl-XL dependent tumor cell line H146; format: cell-based; settings: Homo sapiens, NCI-H146; 10% HS
[9] = system: peripheral blood immune cells; experiment: Peripheral blood lymphocytes in C57BL/6 mice, Cell Dyn hematology analyzer; format: in vivo; settings: for inhibition in vivo at 100 mg/kg: Mus musculus, Lymphocyte
Description: The effect of the Bcl-2 selective/Bcl-XL sparing compounds on peripheral blood immune cells was also evaluated in C57BL/6 mice. Mice were treated four days with individual compounds (100 mg/kg, orally every day) and cell numbers were measured with a Cell Dyn hematology analyzer.

[10] = system: spontaneous (NZB×NZW)F1 murine model of lupus; experiment: Spontaneous (NZB×NZW)F1 murine model of lupus: proteinuria, survival, lymphopenia; format: in vivo, (NZB×NZW)F1 mice
From the text: (See Liu, K. and C. Mohan, What do mouse models teach us about human SLE? Clin Immunol, 2006. 119(2): p. 123-30) This model has been well-characterized with respect to the patho-physiological changes analogous to those of human SLE. […] Renal histopathological changes include severe glomerulonephritis, mesangial and peripheral proliferative changes, capillary membrane thickening, tubular atrophy, and infiltration of lymphocytes and monocytes/macrophages as in the majority of human SLE patients. These changes result in disruption of kidney function as evidenced by severe proteinuria (PU) greater than 300 mg/dL as measured by albumin sticks, followed by mortality as measured by survival. […] (See Gelfand, M. C. and A. D. Steinberg, Therapeutic studies in NZB-W mice. II. Relative efficacy of azathioprine, cyclophosphamide and methylprednisolone. Arthritis Rheum, 1972. 15(3): p. 247-52; and Ramos, M. A., et al., Modulation of autoantibody production by mycophenolate mofetil: effects on the development of SLE in (NZB×NZW)F1 mice. Nephrol Dial Transplant, 2003. 18(5): p. 878-83)
(NZB×NZW)F1 females were purchased from The Jackson Laboratory (Bar Harbor, Me., USA) and maintained in a conventional animal housing facility throughout the experiment. […] Proteinuria (PU) and survival were monitored weekly, followed by biweekly measurement of lymphocyte and platelet counts, and anti-ds DNA production. PK parameters were also measured throughout the study. Impact on IgG deposition and renal pathology were assessed at the conclusion of the study. Severe PU was defined by two consecutive weekly measurements of PU 300 mg/dl using Albustix test strips (VWR). When mice became moribund, they were sacrificed according to Institutional Animal Care and Use Committee protocols. PU and survival data were presented as Kaplan-Meyer survival curves using Graphpad Prism software and group differences were considered significant at the level of p<0.05. Histologic scores were analyzed using ANOVA analysis. Anti-ds DNA were analyzed using one-way ANOVA analysis and Tukey post-test.

Chain of Mcl-1 (Q07820 whole entry): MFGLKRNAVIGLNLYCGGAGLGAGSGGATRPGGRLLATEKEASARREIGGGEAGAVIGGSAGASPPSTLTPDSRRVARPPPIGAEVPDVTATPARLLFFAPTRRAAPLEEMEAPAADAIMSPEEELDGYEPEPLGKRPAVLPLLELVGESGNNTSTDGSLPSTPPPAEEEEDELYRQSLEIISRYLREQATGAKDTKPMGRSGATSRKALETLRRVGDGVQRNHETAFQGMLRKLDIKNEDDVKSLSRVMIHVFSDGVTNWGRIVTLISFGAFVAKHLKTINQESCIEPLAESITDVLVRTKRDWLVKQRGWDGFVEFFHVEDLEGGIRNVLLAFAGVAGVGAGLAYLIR
Chain of Bcl-2 (P10415 whole entry): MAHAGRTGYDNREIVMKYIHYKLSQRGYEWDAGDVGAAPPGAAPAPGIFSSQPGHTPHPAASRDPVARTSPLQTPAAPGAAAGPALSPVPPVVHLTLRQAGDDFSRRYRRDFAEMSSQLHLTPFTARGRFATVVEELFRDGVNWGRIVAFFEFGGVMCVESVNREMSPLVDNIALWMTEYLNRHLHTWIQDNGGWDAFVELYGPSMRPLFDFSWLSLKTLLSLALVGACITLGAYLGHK
Chain of Bcl-XL (Q07817 whole entry): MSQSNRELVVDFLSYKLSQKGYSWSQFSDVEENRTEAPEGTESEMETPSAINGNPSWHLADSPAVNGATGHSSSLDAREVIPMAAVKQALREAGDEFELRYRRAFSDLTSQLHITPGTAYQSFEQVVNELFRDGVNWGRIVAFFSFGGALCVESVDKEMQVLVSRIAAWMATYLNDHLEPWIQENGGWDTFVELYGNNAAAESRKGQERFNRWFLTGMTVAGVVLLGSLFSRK

Molecule CC1(C)CCC(CN2CCN(c3ccc(C(=O)NS(=O)(=O)c4ccc(N[C@H]5CC[C@H](N6CCOCC6)CC5)c([N+](=O)[O-])c4)c(Oc4cnc(N)c(Cl)c4)c3)CC2)=C(c2ccc(Cl)cc2)C1 [Compound 17, Trans-2-[(6-amino-5-chloropyridin-3-yl)oxy]-4-(4-{[2-(4-chlorophenyl)-4,4-dimethylcyclohex-1-en-1-yl]methyl}piperazin-1-yl)-N-({4-[(4-morpholin-4-ylcyclohexyl)amino]-3-nitrophenyl}sulfonyl)benzamide] has a Ki [1] of under 0.01 nM, a Ki [2] of 12 nM and a Ki [3] of 357 nM. It also gave a Ki [4] of over 440 nM, an EC50 [5] of 4 nM and an EC50 [6] of 65 nM. The EC50 [7] was 17 nM, the EC50 [8] was 3240 nM and the “Day 1 Lymphocytes” value ([9]; 1 oral dose of 100 mg/kg) was 1.84 ×10^6. For the same molecule, the “Day 4 lymphocytes” value ([9]; 4 oral doses of 100 mg/kg) was 1.30 ×10^6, the inhibition in vivo at 100 mg/kg ([9]; 24 h, 1 oral dose of 100 mg/kg, read-out: Day 1 % Reduction vs. Vehicle) was 77% and the inhibition in vivo at 100 mg/kg ([9]; 96 h, 4 oral doses of 100 mg/kg, read-out: Day 4 % Reduction vs. Vehicle) was 83%. The “% Mice with PU < 300 mg/dL” value ([10]; Week 39, 1 mg/kg daily oral) was 58%, the “% Survival” value ([10]; Week 39, 1 mg/kg daily oral) was 67% and the “% Mice with PU < 300 mg/dL” value ([10]; Week 39, 3 mg/kg daily oral) was 67%. The “% Survival” value ([10]; Week 39, 3 mg/kg daily oral) was 92%, the “% Mice with PU < 300 mg/dL” value ([10]; Week 39, 10 mg/kg daily oral) was 71% and the “% Survival” value ([10]; Week 39, 10 mg/kg daily oral) was 93%. The “% Mice with PU < 300 mg/dL” value ([10]; Week 39, 30 mg/kg daily oral) was 86%, the “% Survival” value ([10]; Week 39, 30 mg/kg daily oral) was 100% and the “% Mice with PU < 300 mg/dL” value ([10]; Week 39, 100 mg/kg daily oral) was 100* %. For the same molecule, the “% Survival” value ([10]; Week 39, 100 mg/kg daily oral) was 100%.
